Test results: article PMC9151520 (Archives of Toxicology, 2022)
Values joined by “and” are separate entries in the source; they are usually repeats but may differ in a detail not shown here. Equal values may be shown once. Where a name gives a salt, the structure may show the parent alone. Read-outs that look alike come from different tables or passages of the source.

How the values were obtained:
[1] = system: p53 signaling (p53RE-bla HCT-116 cells)
[2] = system: p53 signaling (p53RE-bla HCT-116 cells); assay: cells; format: cell-based
[3] = system: p53 signaling (p53RE-bla HCT-116 cells); remark: listed apart in the source
[4] = system: p53RE-bla HCT-116 cells
[5] = Homo sapiens, HCT-116, read-out: p53 activation EC50, cherry pick confirmation
[6] = Homo sapiens, HCT-116, read-out: p53 activation EC50, primary screening
[7] = Homo sapiens, HCT-116, read-out: p53 activation efficacy, cherry pick confirmation
[8] = Homo sapiens, HCT-116, read-out: p53 activation efficacy, primary screening
[9] = read-out: p53 activation EC50, cherry pick confirmation

SMILES	p53 activation EC50, cherry pick confirmation [1]	p53 activation EC50, primary screening [1]	p53 activation efficacy, cherry pick confirmation [1]	p53 activation efficacy, primary screening [1]	EC50 [2, 5] [µM]	EC50 [2, 6] [µM]	Emax [2, 7] [%]	Emax [2, 8] [%]	p53 activation EC50, cherry pick confirmation [3]	p53 activation EC50, primary screening [3]	p53 activation efficacy, cherry pick confirmation [3]	p53 activation efficacy, primary screening [3]	Viability EC50, cherry pick confirmation [4]	Viability EC50, primary screening [4]	Viability efficacy, cherry pick confirmation [4]	Viability efficacy, primary screening [4]	further results
COc1cccc2c1C(=O)c1c(O)c3c(c(O)c1C2=O)C[C@@](O)(C(=O)CO)C[C@@H]3O[C@H]1C[C@H](N)[C@H](O)[C@H](C)O1 [Adriamycin hydrochloride]	–	–	–	–	–	–	–	–	–	–	–	–	–	–	–	–	EC50, p53 activation, cherry pick confirmation [1]: inactive; EC50, p53 activation, primary screening [1]: inactive; Efficacy, p53 activation, cherry pick confirmation [1]: inactive; Efficacy, p53 activation, primary screening [1]: inactive; EC50 ([2]; Homo sapiens, HCT-116, read-out: EC50, p53 activation, cherry pick confirmation): 1.45 µM; EC50 ([2]; Homo sapiens, HCT-116, read-out: EC50, p53 activation, primary screening): 0.963 µM; Emax ([2]; Homo sapiens, HCT-116, read-out: Efficacy, p53 activation, cherry pick confirmation): 335%; Emax ([2]; Homo sapiens, HCT-116, read-out: Efficacy, p53 activation, primary screening): 220%; EC50, p53 activation, cherry pick confirmation [3]: inactive; EC50, p53 activation, primary screening [3]: inactive; Efficacy, p53 activation, cherry pick confirmation [3]: inactive; Efficacy, p53 activation, primary screening [3]: inactive; EC50, viability, cherry pick confirmation [4]: inactive; EC50, viability, primary screening [4]: inactive; Efficacy, viability, cherry pick confirmation [4]: inactive; Efficacy, viability, primary screening [4]: inactive
CCC[S+]([O-])c1ccc2[nH]c(NC(=O)OC)nc2c1 (centres unmarked) [Albendazole oxide]	inactive	inactive	inactive	inactive	20.5	12.8	37.2	33.8	inactive	inactive	inactive	inactive	inactive	inactive	inactive	inactive	–
O=[Se](O)O [Selenious acid]	–	–	–	–	–	–	–	–	–	–	–	–	–	–	–	–	EC50, p53 activation, cherry pick confirmation [1]: inactive; EC50, p53 activation, primary screening [1]: inactive; Efficacy, p53 activation, cherry pick confirmation [1]: inactive; Efficacy, p53 activation, primary screening [1]: inactive; EC50, p53 activation, cherry pick confirmation [2]: inactive; Efficacy, p53 activation, cherry pick confirmation [2]: inactive; Efficacy, p53 activation, primary screening [2]: 32.672; EC50 ([2]; read-out: EC50, p53 activation, primary screening): 45.1 µM; EC50, p53 activation, cherry pick confirmation [3]: inactive; EC50, p53 activation, primary screening [3]: inactive; Efficacy, p53 activation, cherry pick confirmation [3]: inactive; Efficacy, p53 activation, primary screening [3]: inactive; EC50, viability, cherry pick confirmation [4]: inactive; EC50, viability, primary screening [4]: inactive; EC50 ([4]; read-out: EC50, viability, cherry pick confirmation): 25.8 µM; EC50 ([4]; read-out: EC50, viability, primary screening): 42.9 µM
CCCCNC(=O)n1c(NC(=O)OC)nc2ccccc21 [Benomyl]	inactive	inactive	inactive	inactive	8.93	11.4	38.5	88.9	inactive	inactive	inactive	inactive	inactive	inactive	inactive	inactive	–
O=C1c2ccccc2C(=O)C1(O)O [Ninhydrin]	inactive	inactive	inactive	inactive	22.3	41.2	44.3	55.1	inactive	inactive	inactive	inactive	inactive	inactive	inactive	inactive	–
C#C[C@]1(O)CC[C@H]2[C@@H]3CCc4cc(O)ccc4[C@H]3CC[C@@]21C [17alpha-Ethinylestradiol]	inactive	inactive	inactive	inactive	3.62	11.9	50.6	38.5	inactive	inactive	inactive	inactive	inactive	inactive	inactive	inactive	–
CN1CCC(Nc2ncc3ncnc(Nc4ccc(F)c(Cl)c4)c3n2)CC1.Cl.Cl [Falnidamol dihydrochloride]	–	–	–	–	–	–	–	–	–	–	–	–	–	–	–	–	p53 activation EC50, HLM [1]: inactive; EC50 ([1]; read-out: p53 activation EC50, HLM): 14.2 µM; EC50 ([2]; read-out: p53 activation EC50, No MS): 16.7 µM and 12.9 µM; EC50 ([3]; read-out: p53 activation EC50, RLM): 17.2 µM and 8.9 µM; Viability EC50, HLM [4]: inactive; Viability EC50, No MS [4]: inactive; Viability EC50, RLM [4]: inactive; Viability Efficacy, HLM [4]: inactive; Viability Efficacy, No MS [4]: inactive; Viability Efficacy, RLM [4]: inactive
CC(C)CP(=S)([S-])CC(C)C.[Na+] [Sodium diisobutyldithiophosphinate]	inactive	–	inactive	–	–	–	–	–	inactive	–	inactive	–	inactive	inactive	inactive	inactive	p53 activation EC50, primary screening [2]: inactive; p53 activation efficacy, cherry pick confirmation [2]: 36.227; p53 activation efficacy, primary screening [2]: inactive; EC50 [2, 9]: 2.22 µM
O=C(O)c1c(O)c(-c2ccccc2)nc2ccccc12 [Oxycinchophen]	inactive	inactive	inactive	inactive	23.1	16.6	87.1	60.5	inactive	inactive	inactive	inactive	inactive	inactive	inactive	inactive	–
N[C@@H](Cc1ccc(N(CCCl)CCCl)cc1)C(=O)O [Melphalan]	inactive	inactive	inactive	inactive	15.6	17.8	43.3	46.7	inactive	inactive	inactive	inactive	inactive	inactive	inactive	inactive	–
O=C(c1ccccc1)c1ccccc1 [Benzophenone]	inactive	–	inactive	–	–	–	–	–	inactive	–	inactive	–	inactive	inactive	inactive	inactive	p53 activation EC50, cherry pick confirmation [2]: inactive; p53 activation EC50, primary screening [2]: inactive; p53 activation efficacy, cherry pick confirmation [2]: inactive; p53 activation efficacy, primary screening [2]: inactive
Nc1ccc2cc3ccc(N)cc3nc2c1.Nc1ccc2cc3ccc(N)cc3nc2c1.O=S(=O)(O)O [Proflavin hemisulfate]	inactive	inactive	inactive	inactive	–	–	–	–	inactive	inactive	inactive	inactive	inactive	inactive	–	inactive	p53 activation efficacy, cherry pick confirmation [2]: 364.531; p53 activation efficacy, primary screening [2]: 180.344; EC50 [2, 9]: 5.5 µM; EC50 ([2]; read-out: p53 activation EC50, primary screening): 4.88 µM; EC50 ([4]; read-out: Viability EC50, cherry pick confirmation): 17.8 µM
S=c1[nH]cnc2nc[nH]c12 [6-Mercaptopurine]	inactive	inactive	inactive	inactive	9.76	7.97	41.7	80.4	inactive	inactive	inactive	inactive	inactive	inactive	inactive	inactive	–
